Source: US20240217978A1 (CHONG KUN DANG PHARMACEUTICAL CORP., priority 2021, published 2024)

Molecular target: human adenosine A2a receptor (Homo sapiens (Human), UniProt P29274)
Test: A2a receptor binding affinity, [3H]-NECA radioligand binding test
Conditions: [3H]-NECA 37 nM; membrane from HEK-293 cells transfected with human adenosine A2a receptor
Summary of the method: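 IC50 values (μM) come from displacement of [3H]-NECA, used at 37 nM final, on human A2a receptor membranes from transfected HEK-293 cells. Incubation lasted one hour at room temperature in Tris/MgCl2/EDTA buffer, pH 7.4; filter-bound radioactivity was counted by scintillation.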

Chain of human adenosine A2a receptor (P29274 whole entry): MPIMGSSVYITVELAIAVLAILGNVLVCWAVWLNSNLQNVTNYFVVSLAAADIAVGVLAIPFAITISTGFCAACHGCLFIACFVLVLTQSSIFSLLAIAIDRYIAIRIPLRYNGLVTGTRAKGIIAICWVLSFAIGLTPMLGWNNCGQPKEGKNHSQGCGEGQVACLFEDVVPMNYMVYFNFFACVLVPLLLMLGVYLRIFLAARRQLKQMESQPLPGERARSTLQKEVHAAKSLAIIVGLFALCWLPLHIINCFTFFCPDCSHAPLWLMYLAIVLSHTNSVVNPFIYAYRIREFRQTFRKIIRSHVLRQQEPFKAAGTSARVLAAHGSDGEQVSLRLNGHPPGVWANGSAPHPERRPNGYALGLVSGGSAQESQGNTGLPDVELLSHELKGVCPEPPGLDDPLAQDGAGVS

Row | Structure (SMILES) | IC50 [nM]
1 | CC(C)(O)CN1CCC(C2CCN(C(=O)[C@@H]3CCN3c3cc4nc(-c5ccco5)nn4c(N)n3)CC2)CC1 [Example 381, (S)-(1-(5-amino-2-(furan-2-yl)-[1,2,4]triazolo[1,5-c]pyrimidin-7-yl)azetidin-2-yl)(1′-(2-hydroxy-2-methylpropyl)-[4,4′-bipiperidin]-1-yl)methanone] | 9
2 | CC(C)(F)CN1CCC(C2CCN(C(=O)[C@@H]3CCN3c3cc4nc(-c5ccco5)nn4c(N)n3)CC2)CC1 [Example 382, (S)-(1-(5-amino-2-(furan-2-yl)-[1,2,4]triazolo[1,5-c]pyrimidin-7-yl)azetidin-2-yl)(1′-(2-fluoro-2-methylpropyl)-[4,4′-bipiperidin]-1-yl)methanone] | 3
3 | CCCCN1CCC(C2CCN(C(=O)[C@@H]3CCN3c3cc4nc(-c5ccco5)nn4c(N)n3)CC2)CC1 [Example 383, (S)-(1-(5-amino-2-(furan-2-yl)-[1,2,4]triazolo[1,5-c]pyrimidin-7-yl)azetidin-2-yl)(1′-butyl-[4,4′-bipiperidin]-1-yl)methanone] | 2
4 | Nc1nc(N2CCC[C@H]2C(=O)N2CCN(c3ncc4c(n3)COC4)CC2)nc2nc(-c3ccco3)nn12 [Example 384, 2-(4-((7-amino-2-(furan-2-yl)-[1,2,4]triazolo[1,5-a][1,3,5]triazin-5-yl)-L-prolyl)piperazin-1-yl)-5,7-dihydrofuro[3,4-d]pyrimidine] | 0.5
5 | Nc1nc(N2CC3(CC3)C[C@H]2C(=O)N2CCN(CC(F)(F)F)CC2)nc2nc(-c3ccco3)nn12 [Example 385, (S)-(5-(7-amino-2-(furan-2-yl)-[1,2,4]triazolo[1,5-a][1,3,5]triazin-5-yl)-5-azaspiro[2.4]heptan-6-yl)(4-(2,2,2-trifluoroethyl)piperazin-1-yl)methanone] | 0.8
6 | CC(C)(F)CN1CCN(C(=O)[C@@H]2CC3(CC3)CN2c2nc(N)n3nc(-c4ccco4)nc3n2)CC1 [Example 386, (S)-(5-(7-amino-2-(furan-2-yl)-[1,2,4]triazolo[1,5-a][1,3,5]triazin-5-yl)-5-azaspiro[2.4]heptan-6-yl)(4-(2-fluoro-2-methylpropyl)piperazin-1-yl)methanone] | 8
7 | CC1(C)C[C@@H](C(=O)N2CCN(CC(F)(F)F)CC2)N(c2nc(N)n3nc(-c4ccco4)nc3n2)C1 [Example 387, (S)-(1-(7-amino-2-(furan-2-yl)-[1,2,4]triazolo[1,5-a][1,3,5]triazin-5-yl)-4,4-dimethylpyrrolidin-2-yl)(4-(2,2,2-trifluoroethyl)piperazin-1-yl)methanone] | 1
8 | CC(C)(F)CN1CCN(C(=O)CNc2nc(N)n3nc(-c4ccco4)nc3n2)CC1 [Example 388, 2-((7-amino-2-(furan-2-yl)-[1,2,4]triazolo[1,5-a][1,3,5]triazin-5-yl)amino)-1-(4-(2-fluoro-2-methylpropyl)piperazin-1-yl)ethan-1-one] | 9
9 | Nc1nc(N2CCC[C@H]2C(=O)N2CCN(CC3(F)CCOCC3)CC2)nc2nc(-c3ccco3)nn12 [Example 389, (S)-(1-(7-amino-2-(furan-2-yl)-[1,2,4]triazolo[1,5-a][1,3,5]triazin-5-yl)pyrrolidin-2-yl)(4-((4-fluorotetrahydro-2H-pyran-4-yl)methyl)piperazin-1-yl)methanone] | 7
10 | Nc1nc(N2CCC[C@H]2C(=O)N2CCC(N3CC(F)(F)C3)CC2)nc2nc(-c3ccco3)nn12 [Example 390, (S)-(1-(7-amino-2-(furan-2-yl)-[1,2,4]triazolo[1,5-a][1,3,5]triazin-5-yl)pyrrolidin-2-yl)(4-(3,3-difluoroazetidin-1-yl)piperidin-1-yl)methanone] | 8
11 | Nc1nc(N2CCC[C@H]2C(=O)N2CCC(N3CCC(F)(F)CC3)CC2)nc2nc(-c3ccco3)nn12 [Example 391, (S)-(1-(7-amino-2-(furan-2-yl)-[1,2,4]triazolo[1,5-a][1,3,5]triazin-5-yl)pyrrolidin-2-yl)(4,4-difluoro-[1,4′-bipiperidin]-1′-yl) methanone] | 7
12 | Nc1nc(N2CCC[C@H]2C(=O)N2CCN(C3CCC3)CC2)nc2nc(-c3ccco3)nn12 [Example 392, (S)-(1-(7-amino-2-(furan-2-yl)-[1,2,4]triazolo[1,5-a][1,3,5]triazin-5-yl)pyrrolidin-2-yl)(4-cyclobutylpiperazin-1-yl)methanone] | 9
13 | Nc1nc(N2CCC[C@H]2C(=O)N2CCC(C3CCN(CC(F)F)CC3)CC2)cc2nc(-c3ccco3)nn12 [Example 393, (S)-(1-(5-amino-2-(furan-2-yl)-[1,2,4]triazolo[1,5-c]pyrimidin-7-yl)pyrrolidin-2-yl)(1′-(2,2-difluoroethyl)-[4,4′-bipiperidin]-1-yl)methanone] | 13
14 | CC(F)(F)CN1CCC(C2CCN(C(=O)[C@@H]3CCCN3c3cc4nc(-c5ccco5)nn4c(N)n3)CC2)CC1 [Example 394, (S)-(1-(5-amino-2-(furan-2-yl)-[1,2,4]triazolo[1,5-c]pyrimidin-7-yl)pyrrolidin-2-yl)(1′-(2,2-difluoropropyl)-[4,4′-bipiperidin]-1-yl)methanone] | 15
15 | CC(C)(F)CN1CCC(C2CCN(C(=O)[C@@H]3CCCN3c3cc4nc(-c5ccco5)nn4c(N)n3)CC2)CC1 [Example 395, (S)-(1-(5-amino-2-(furan-2-yl)-[1,2,4]triazolo[1,5-c]pyrimidin-7-yl)pyrrolidin-2-yl)(1′-(2-fluoro-2-methylpropyl)-[4,4′-bipiperidin]-1-yl)methanone] | 18
16 | COC[C@H](Nc1nc(N)n2nc(-c3ccco3)nc2n1)C(=O)N1CCN(CC(F)F)CC1 [Example 396, (S)-2-((7-amino-2-(furan-2-yl)-[1,2,4]triazolo[1,5-a][1,3,5]triazin-5-yl)amino)-1-(4-(2,2-difluoroethyl)piperazin-1-yl)-3-methoxypropan-1-one] | 29
17 | COC[C@H](Nc1nc(N)n2nc(-c3ccco3)nc2n1)C(=O)N1CCN(CC(C)(F)F)CC1 [Example 397, (S)-2-((7-amino-2-(furan-2-yl)-[1,2,4]triazolo[1,5-a][1,3,5]triazin-5-yl)amino)-1-(4-(2,2-difluoropropyl)piperazin-1-yl)-3-methoxypropan-1-one] | 12
18 | COC[C@H](Nc1nc(N)n2nc(-c3ccco3)nc2n1)C(=O)N1CCN(C2CCC(F)(F)CC2)CC1 [Example 398, (S)-2-((7-amino-2-(furan-2-yl)-[1,2,4]triazolo[1,5-a][1,3,5]triazin-5-yl)amino)-1-(4-(4,4-difluorocyclohexyl)piperazin-1-yl)-3-methoxypropan-1-one] | 20
19 | COC[C@H](Nc1nc(N)n2nc(-c3ccco3)nc2n1)C(=O)N1CCN(CC(C)(C)O)CC1 [Example 399, (S)-2-((7-amino-2-(furan-2-yl)-[1,2,4]triazolo[1,5-a][1,3,5]triazin-5-yl)amino)-1-(4-(2-hydroxy-2-methylpropyl)piperazin-1-yl)-3-methoxypropan-1-one] | 5
20 | Nc1nc(N2CCC[C@H]2C(=O)N2CCC(N3CC(F)(F)C3)CC2)cc2nc(-c3ccco3)nn12 [Example 400, (S)-(1-(5-amino-2-(furan-2-yl)-[1,2,4]triazolo[1,5-c]pyrimidin-7-yl)pyrrolidine-2-yl)(4-(3,3-difluoroazetidin-1-yl)piperidin-1-yl)methanone] | 14
